Measurements reported in paper PMC11882969 (Nature Communications, 2025).
Several values for one entry are separate records, joined by “and”; a condition that tells them apart may be missing. Equal values may be shown once.

Biological target: hCB2 (Homo sapiens, UniProt P34972)
Test: bioSensAll ebBRET signaling profiling, hCB2
Format: cell-based
Set-up: host or cells: HEK293SL cells, transient PEI transfection
Settings: for RE, relative efficacy: vs CP-55,940; for G13 hCB2 / G15 hCB2 / Gq hCB2 / Gs hCB2: raw signal
[1] = Log [Compound] (M) not printed (line after -13)

Chain of hCB2 (P34972 whole entry): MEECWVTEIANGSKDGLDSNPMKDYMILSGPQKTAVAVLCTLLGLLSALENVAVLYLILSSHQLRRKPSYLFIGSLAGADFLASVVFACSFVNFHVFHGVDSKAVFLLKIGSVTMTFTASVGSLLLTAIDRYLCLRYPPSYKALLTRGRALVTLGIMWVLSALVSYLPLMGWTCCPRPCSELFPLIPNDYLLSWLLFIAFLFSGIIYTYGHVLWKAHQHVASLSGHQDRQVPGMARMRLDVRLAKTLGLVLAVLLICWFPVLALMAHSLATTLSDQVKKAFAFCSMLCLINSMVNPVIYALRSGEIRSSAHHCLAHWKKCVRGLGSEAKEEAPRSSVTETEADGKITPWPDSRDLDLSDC

`COC(=O)[C@@](C)(NC(=O)c1cc(C)n(-c2cccc(C(F)(F)F)c2)n1)c1cccs1` [‘1350] was tested, and the “Barr2+GRK2 hCB2” value (Log [Compound] (M) -4.22186) was 44.1172 and 39.7347, the “Gi1 hCB2” value (Log [Compound] (M) -4.22186) was 74.4771 and 77.5324 and the “Gi2 hCB2” value (Log [Compound] (M) -4.22186) was 66.5499. The “GoB hCB2” value (Log [Compound] (M) -4.22186) was 56.9391 and 70.3563, the “Gz hCB2” value (Log [Compound] (M) -4.22186) was 58.5774 and 64.6863 and the “Barr2+GRK2 hCB2” value (Log [Compound] (M) -4.63927) was 32.763 and 29.7899. The “Gi1 hCB2” value (Log [Compound] (M) -4.63927) was 72.942 and 75.6692, the “Gi2 hCB2” value (Log [Compound] (M) -4.63927) was 60.7879 and the “GoB hCB2” value (Log [Compound] (M) -4.63927) was 56.4664 and 67.1616. For the same compound, the “Gz hCB2” value (Log [Compound] (M) -4.63927) was 78.3049 and 53.5883, the “Barr2+GRK2 hCB2” value (Log [Compound] (M) -5.05788) was 29.8124 and 18.7956 and the “Gi1 hCB2” value (Log [Compound] (M) -5.05788) was 74.0429 and 76.6089. For the same compound, the “Gi2 hCB2” value (Log [Compound] (M) -5.05788) was 58.4001, the “GoB hCB2” value (Log [Compound] (M) -5.05788) was 54.53 and 64.4448 and the “Gz hCB2” value (Log [Compound] (M) -5.05788) was 66.9683 and 41.1092. The “Barr2+GRK2 hCB2” value (Log [Compound] (M) -5.47381) was 34.9292 and 20.8945, the “Gi1 hCB2” value (Log [Compound] (M) -5.47381) was 72.8179 and 79.0878 and the “Gi2 hCB2” value (Log [Compound] (M) -5.47381) was 60.2299. The “GoB hCB2” value (Log [Compound] (M) -5.47381) was 53.5084 and 63.1367, the “Gz hCB2” value (Log [Compound] (M) -5.47381) was 56.2566 and 45.2442 and the “Barr2+GRK2 hCB2” value (Log [Compound] (M) -5.89285) was 30.1859 and 15.2974. For the same compound, the “Gi1 hCB2” value (Log [Compound] (M) -5.89285) was 75.9346 and 71.3757, the “Gi2 hCB2” value (Log [Compound] (M) -5.89285) was 59.8925 and the “GoB hCB2” value (Log [Compound] (M) -5.89285) was 55.4448 and 59.3006. The “Gz hCB2” value (Log [Compound] (M) -5.89285) was 73.8416 and 43.9289, the “Barr2+GRK2 hCB2” value (Log [Compound] (M) -6.31878) was 31.1196 and 18.9955 and the “Gi1 hCB2” value (Log [Compound] (M) -6.31878) was 70.1509 and 73.9032. The “Gi2 hCB2” value (Log [Compound] (M) -6.31878) was 59.7627, the “GoB hCB2” value (Log [Compound] (M) -6.31878) was 55.1551 and 56.3448 and the “Gz hCB2” value (Log [Compound] (M) -6.31878) was 71.9968 and 45.6141. The “Barr2+GRK2 hCB2” value (Log [Compound] (M) -6.72585) was 25.5172 and 13.5483, the “Gi1 hCB2” value (Log [Compound] (M) -6.72585) was 69.1585 and 77.5649 and the “Gi2 hCB2” value (Log [Compound] (M) -6.72585) was 61.5795. The “GoB hCB2” value (Log [Compound] (M) -6.72585) was 54.5452 and 57.5649, the “Gz hCB2” value (Log [Compound] (M) -6.72585) was 45.4258 and 40.2871 and the “Barr2+GRK2 hCB2” value (Log [Compound] (M) -7.14267) was 30.2979 and 16.2969. The “Gi1 hCB2” value (Log [Compound] (M) -7.14267) was 65.6232 and 81.2265, the “Gi2 hCB2” value (Log [Compound] (M) -7.14267) was 58.2833 and the “GoB hCB2” value (Log [Compound] (M) -7.14267) was 51.8616 and 63.3506. The “Gz hCB2” value (Log [Compound] (M) -7.14267) was 50.5436 and 34.8285, the “Barr2+GRK2 hCB2” value (Log [Compound] (M) -7.55284) was 26.2642 and 26.7415 and the “Gi1 hCB2” value (Log [Compound] (M) -7.55284) was 64.5377 and 66.7095. For the same compound, the “Gi2 hCB2” value (Log [Compound] (M) -7.55284) was 59.5551, the “GoB hCB2” value (Log [Compound] (M) -7.55284) was 57.4727 and 58.7094 and the “Gz hCB2” value (Log [Compound] (M) -7.55284) was 50.2461 and 38.3305. For the same compound, the “Barr2+GRK2 hCB2” value (Log [Compound] (M) -8) was 20.9979 and 17.0465, the “Gi1 hCB2” value (Log [Compound] (M) -8) was 54.8465 and 52.1925 and the “Gi2 hCB2” value (Log [Compound] (M) -8) was 54.4549. The “GoB hCB2” value (Log [Compound] (M) -8) was 47.1654 and 53.6784, the “Barr2+GRK2 hCB2” value (Log [Compound] (M) -8.22186) was 23.9859 and 16.2469 and the “Gi1 hCB2” value (Log [Compound] (M) -8.22186) was 56.5677 and 32.8473. The “Gi2 hCB2” value (Log [Compound] (M) -8.22186) was 55.2855, the “GoB hCB2” value (Log [Compound] (M) -8.22186) was 43.0943 and 48.7228 and the “Gz hCB2” value (Log [Compound] (M) -8.22186) was 50.1568 and 46.2389. The “Gi1 hCB2” value (Log [Compound] (M) -8.39794) was 38.2861 and 47.0726, the “Gi2 hCB2” value (Log [Compound] (M) -8.39794) was 44.5921 and the “GoB hCB2” value (Log [Compound] (M) -8.39794) was 29.1733 and 38.4595. For the same compound, the “Gi1 hCB2” value (Log [Compound] (M) -8.68787) was 27.0908 and 14.9764, the “Gi2 hCB2” value (Log [Compound] (M) -8.68787) was 26.6573 and the “GoB hCB2” value (Log [Compound] (M) -8.68787) was 22.9675 and 22.9513. The “Gi2 hCB2” value (Log [Compound] (M) -9.15521) was 7.477, the “Gi2 hCB2” value (Log [Compound] (M) -9.61989) was -6.111 and the “Gi2 hCB2” value (Log [Compound] (M) -10.0969) was -9.55. For the same compound, the “Gi2 hCB2” value (Log [Compound] (M) -10.5529) was -9.589, the “Gi2 hCB2” value (Log [Compound] (M) -11.0177) was -8.914 and the “Gi2 hCB2” value (Log [Compound] (M) -11.4949) was -12.1971. For the same compound, the “Gi2 hCB2” value (Log [Compound] (M) -11.9208) was -11.8078, the “Gi2 hCB2” value (Log [Compound] (M) -12.3979) was -13.4949 and the “Gi2 hCB2” value (Log [Compound] (M) -12.8861) was -11.678. For the same compound, the “Gi2 hCB2” value (Log [Compound] (M) -13) was -15.0781, the “Gz hCB2” value (Log [Compound] (M) -13) was -3.497 and the “Barr2+GRK2 hCB2” value [1] was -10.739. The “GoB hCB2” value [1] was 0.1984, the “Gz hCB2” value [1] was 0.9754 and the “pEC50 [95% CI]” value (hCB2 Gi1) was 8.45 [8.4 – 8.5]. For the same compound, the “RE, relative efficacy” value (hCB2 Gi1) was 0.29, the “pEC50 [95% CI]” value (hCB2 Gi2) was 8.79 [8.7 – 8.9] and the “RE, relative efficacy” value (hCB2 Gi2) was 0.40. The “pEC50 [95% CI]” value (hCB2 GoB) was 8.58 [8.5 – 8.7], the “RE, relative efficacy” value (hCB2 GoB) was 0.40 and the “RE, relative efficacy” value (hCB2 Gz) was 0.22. For the same compound, the “RE, relative efficacy” value (hCB2 ßarr2+GRK2) was 0.92, the “G13 hCB2” value (Log [Compound] (M) -4.22186) was 370 and the “G15 hCB2” value (Log [Compound] (M) -4.22186) was 861. For the same compound, the “Gq hCB2” value (Log [Compound] (M) -4.22186) was 1817, the “Gs hCB2” value (Log [Compound] (M) -4.22186) was 9372 and the “G13 hCB2” value (Log [Compound] (M) -4.63927) was 318. The “G15 hCB2” value (Log [Compound] (M) -4.63927) was 875, the “Gq hCB2” value (Log [Compound] (M) -4.63927) was 1909 and the “Gs hCB2” value (Log [Compound] (M) -4.63927) was 9159. For the same compound, the “G13 hCB2” value (Log [Compound] (M) -5.05788) was 339.
